Here are results for seven compounds from patent publication US20260242359A1, “IRHOM2 INHIBITORS AND USES THEREOF” (NEW YORK SOCIETY FOR THE RELIEF OF THE RUPTURED AND …, priority 2023, published 2026).

The term inhibition denotes the relative decrease from the control value, in per cent.

The test system of the test is LPS-induced release of endogenous TNFα from human THP-1 macrophage cells. Nature of the test: Example 12: ELISA-based TNFα release assay, LPS-induced, THP-1 macrophage cells. The class given is cell-based. To be noted: for inhibition at 10 µM: Homo sapiens, THP-1, 2 h, read-out: inhibition of LPS-induced release of TNFα from THP-1 cells. As to the method: In the following study, ELISA-based TNFα release assay was performed to verify the inhibitory effects of Compounds 1, 2, 3, 4, 5, and 7 on LPS-induced release of endogenous TNFα from human THP-1 macrophage cells. The ELISA-based TNFα release assay that was used in this example is described below.
In brief, on day 1, Nunc black MaxiSorp® 96-well plates (Thermo Fisher Scientific, USA) were coated overnight with 100 μl per well of mouse anti-human TNFα capture antibody (provided as part of the DuoSet ELISA kit) at 4 μg/ml TBS at 4° C. On day 2, the capture antibody solution was removed and MaxiSorp® plates were blocked with 300 μl per well of TBS, 1% BSA at room temperature for 3 hours. Meanwhile, 20,000 THP-1 (American Type Culture Collection, USA) cells in 80 μl of normal growth medium were seeded in each well of Greiner CELLSTAR V-bottom 96-well plates (Thermo Fisher Scientific, USA) and pre-incubated with 20 μl per well of standard growth medium supplemented with Batimastat (BB94, Abcam, UK) at 50 μM as positive control (for a final concentration of 10 μM in the resulting 100 μl sample volume), compounds of the invention at 50 μM (for a final concentration of 10 μM in the resulting 100 μl sample volume) and in case of Buffer stimulated and unstimulated controls with DMSO (Carl Roth, Germany) at 50 μM (for a final concentration of 10 μM in the resulting 100 μl sample volume) at 37° C., 5% CO2 for 30 minutes. Subsequently, cells (except those for unstimulated controls) were stimulated with 20 μl per well of LPS (Sigma-Aldrich, USA) at 300 ng/ml growth medium for a final concentration of 50 ng/ml at 37° C., 5% CO2 for 2 hours. Afterwards, the 96-well plates were centrifuged to pellet cells. In parallel, blocking buffer was removed from the MaxiSorp® plates and plates were washed 4 times with 350 μl per well of TBS-T (Carl Roth, Germany) on a 96-head plate washer (Tecan Group, Switzerland). To avoid drying-up, 30 μl of TBS were added to each well of the MaxiSorp® plates immediately, followed by the transfer of 70 μl of cell-free supernatant per sample. Additionally, 100 μl of recombinant human TNFα protein (provided as part of the DuoSet ELISA kit) diluted in TBS at defined concentrations were added to the plate as standard references. Thereafter, 100 μl per well of biotinylated goat anti-human TNFα detection antibody (provided as part of the DuoSet ELISA kit) at 50 ng/ml TBS were added and, protected from direct light, plates were incubated at room temperature for 2 hours. After 4 times washing with 350 μl per well of TBS-T (Carl Roth, Germany) on a 96-head plate washer (Tecan Group, Switzerland) and careful removal of all buffer traces after the fourth cycle, 100 μl of streptavidin-AP (R&D Systems, USA) diluted 1:10,000 in TBS were added to each well and, again protected from direct light, plates were incubated at room temperature for 30 minutes. Following another round of 4 times washing with 350 μl per well of TBS-T (Carl Roth, Germany) on a 96-head plate washer (Tecan Group, Switzerland) and careful removal of all buffer traces after the fourth cycle, 100 μl of AttoPhos substrate solution (Promega, USA) was added for incubation in the dark at room temperature for 1 hour. Using an infinite M1000 PRO (Tecan Group, Switzerland) microplate reader, the fluorescence of each well was collected at an excitation wavelength of 435 nm and an emission wavelength of 555 nm.
The delta between Buffer stimulated and Buffer unstimulated was defined 100% inhibition.
(In general: ELISA stands for enzyme-linked immunosorbent assay.)

The mark [1] stands for this setting: 10 μM final concentration, LPS 50 ng/ml, 2 hours, delta Buffer stimulated vs unstimulated = 100% inhibition.

Where two headings read alike, the source gives them in different places.

With `CNC(=O)[C@H](Cc1ccccc1)NC(=O)[C@H](CC(C)C)[C@H](CSc1cccs1)C(=O)NO` [Batimastat, reference compound], under setting [1], the “inhibition of LPS-induced release of TNFα from THP-1 cells” value came out at 94.9% and the inhibition at 10 µM stood at 87.4%.

Take `CCC(=O)NCCc1c(/C=C2/C(=O)NC(=O)N(c3ccc(C)cc3C)C2=O)[nH]c2ccccc12` [Compound 1]: the inhibition at 10 µM stood at 100%.

Consider `CCOC(=O)c1ccc(Nc2nc3nonc3n3nnnc23)cc1` [Compound 2], for which, under setting [1], the inhibition at 10 µM came out at 94.6%.

With `O=C(c1c(Cl)cccc1Cl)N1CCC(Cc2ccc(F)cc2)CC1` [Compound 3], under setting [1], the inhibition at 10 µM was found to be 93.1%.

For `Cc1c(C(=O)NCc2cccs2)sc(=O)n1Cc1ccccc1` [Compound 4], the inhibition at 10 µM under setting [1] came to 58.2%.

In the case of `Cc1c(C(=O)NCc2cccs2)sc(=O)n1Cc1ccccc1F` [Compound 5], the inhibition at 10 µM under setting [1] amounted to 66.1%.

For `Cc1c(C(=O)NCc2ccco2)sc(=O)n1Cc1ccccc1F` [Compound 7], the inhibition at 10 µM under setting [1] was determined as 85.8%.
